In the supplement of paper PMC10733146:

Assays:
Experiment in all cases: viability relative to DMSO control (fraction); higher = less drug effect (more viable cells)
Conditions in all cases: 48 h
Imatinib = compound: Cc1ccc(NC(=O)c2ccc(CN3CCN(C)CC3)cc2)cc1Nc1nccc(-c2cccnc2)n1 [Imatinib]
Procedure, shortened: (§1)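 Using 384-well plates with compounds already plated at five concentrations, one well per concentration, 4 × 10^4 primary mononuclear tumour cells were added per well. Cells were Ficoll-isolated from blood or bone marrow or came from processed lymph node, fresh or cryopreserved. They were kept for 48 h at 37 °C and 5% CO2 in RPMI-1640 supplemented with penicillin/streptomycin, L-glutamine and human serum, and viability was read as CellTiter-Glo luminescence relative to the median of 16 inner DMSO wells.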

Vincristine = compound: CC[C@]1(O)C[C@H]2CN(CCc3c([nH]c4ccccc34)[C@@](C(=O)OC)(c3cc4c(cc3OC)N(C=O)[C@H]3[C@@](O)(C(=O)OC)[C@H](OC(C)=O)[C@]5(CC)C=CCN6CC[C@]43[C@@H]65)C2)C1 [Vincristine]
Procedure, shortened: as §1

Carfilzomib = compound: CC(C)C[C@H](NC(=O)[C@H](CCc1ccccc1)NC(=O)CN1CCOCC1)C(=O)N[C@@H](Cc1ccccc1)C(=O)N[C@@H](CC(C)C)C(=O)[C@@]1(C)CO1 [Carfilzomib]
Procedure, shortened: as §1

Panobinostat = compound: Cc1[nH]c2ccccc2c1CCNCc1ccc(/C=C/C(=O)NO)cc1 [Panobinostat]
Procedure, shortened: as §1

Bortezomib = compound: CC(C)C[C@H](NC(=O)[C@H](Cc1ccccc1)NC(=O)c1cnccn1)B(O)O [Bortezomib]
Procedure, shortened: as §1

Pentostatin = compound: OC[C@H]1O[C@@H](n2cnc3c2N=CNC[C@H]3O)C[C@@H]1O [Pentostatin]
Procedure, shortened: as §1

Idarubicin = compound: CC(=O)[C@]1(O)Cc2c(O)c3c(c(O)c2[C@@H](O[C@H]2C[C@H](N)[C@H](O)[C@H](C)O2)C1)C(=O)c1ccccc1C3=O [Idarubicin]
Procedure, shortened: as §1

BI6727 = compound: CC[C@@H]1C(=O)N(C)c2cnc(Nc3ccc(C(=O)N[C@H]4CC[C@H](N5CCN(CC6CC6)CC5)CC4)cc3OC)nc2N1C(C)C [BI6727]
Procedure, shortened: as §1

Quizartinib = compound: CC(C)(C)c1cc(NC(=O)Nc2ccc(-c3cn4c(n3)sc3cc(OCCN5CCOCC5)ccc34)cc2)no1 [Quizartinib]
Procedure, shortened: as §1

Vemurafenib = compound: CCCS(=O)(=O)Nc1ccc(F)c(C(=O)c2c[nH]c3ncc(-c4ccc(Cl)cc4)cc23)c1F [Vemurafenib]
Procedure, shortened: as §1

Nelarabine = compound: COc1nc(N)nc2c1ncn2[C@@H]1O[C@H](CO)[C@@H](O)[C@@H]1O [Nelarabine]
Procedure, shortened: as §1

TMP269 = compound: O=C(NCC1(c2nc(-c3ccccc3)cs2)CCOCC1)c1cccc(-c2noc(C(F)(F)F)n2)c1 [TMP269]
Procedure, shortened: as §1

[1] = compound: CC(C)(C)OC(=O)Nc1ccc(-c2cc(C(=O)NCCCCCCC(=O)NO)no2)cc1
Procedure, shortened: as §1

Rigosertib = compound: COc1cc(OC)c(/C=C/S(=O)(=O)Cc2ccc(OC)c(NCC(=O)O)c2)c(OC)c1 [Rigosertib]
Procedure, shortened: as §1

primary FL patient cells (S087)
viability (Imatinib; 0.016 µM): 0.983
viability (Imatinib; 0.08 µM): 1.02
viability (Imatinib; 0.4 µM): 1.04
viability (Imatinib; 2 µM): 0.999
viability (Imatinib; 10 µM): 0.852
viability (Vincristine; 0.016 µM): 0.817
viability (Vincristine; 0.08 µM): 0.781
viability (Vincristine; 0.4 µM): 0.739
viability (Vincristine; 2 µM): 0.68
viability (Vincristine; 10 µM): 0.559
viability (Carfilzomib; 0.00016 µM): 0.849
viability (Carfilzomib; 0.0008 µM): 0.515
viability (Carfilzomib; 0.004 µM): 0.272
viability (Carfilzomib; 0.02 µM): 0.22
viability (Carfilzomib; 0.1 µM): 0.188
viability (Panobinostat; 0.00064 µM): 0.965
viability (Panobinostat; 0.0032 µM): 0.928
viability (Panobinostat; 0.016 µM): 0.748
viability (Panobinostat; 0.08 µM): 0.602
viability (Panobinostat; 0.4 µM): 0.555
viability (Bortezomib; 0.008 µM): 0.879
viability (Bortezomib; 0.04 µM): 0.965
viability (Bortezomib; 0.2 µM): 0.931
viability (Bortezomib; 1 µM): 0.998
viability (Bortezomib; 5 µM): 0.901
viability (Pentostatin; 0.03 µM): 1.02
viability (Pentostatin; 0.15 µM): 0.984
viability (Pentostatin; 0.75 µM): 0.967
viability (Pentostatin; 3.75 µM): 0.924
viability (Pentostatin; 18.76 µM): 0.902
viability (Idarubicin; 0.024 µM): 0.829
viability (Idarubicin; 0.12 µM): 0.71
viability (Idarubicin; 0.6 µM): 0.489
viability (Idarubicin; 3 µM): 0.591
viability (Idarubicin; 15 µM): 0.0467
viability (BI6727; 0.024 µM): 0.983
viability (BI6727; 0.12 µM): 0.974
viability (BI6727; 0.6 µM): 0.917
viability (BI6727; 3 µM): 0.778
viability (BI6727; 15 µM): 0.121
viability (Quizartinib; 0.016 µM): 1.08
viability (Quizartinib; 0.08 µM): 1.04
viability (Quizartinib; 0.4 µM): 1.02
viability (Quizartinib; 2 µM): 1.03
viability (Quizartinib; 10 µM): 0.986
viability (Vemurafenib; 0.024 µM): 1.01
viability (Vemurafenib; 0.12 µM): 1.03
viability (Vemurafenib; 0.6 µM): 0.974
viability (Vemurafenib; 3 µM): 0.999
viability (Vemurafenib; 15 µM): 1.04
viability (Nelarabine; 0.024 µM): 0.975
viability (Nelarabine; 0.12 µM): 0.929
viability (Nelarabine; 0.6 µM): 0.891
viability (Nelarabine; 3 µM): 0.818
viability (Nelarabine; 15 µM): 0.745
viability (TMP269; 0.024 µM): 0.972
viability (TMP269; 0.12 µM): 0.934
viability (TMP269; 0.6 µM): 1.03
viability (TMP269; 3 µM): 0.918
viability (TMP269; 15 µM): 0.847
viability ([1]; 0.024 µM): 0.983
viability ([1]; 0.12 µM): 0.894
viability ([1]; 0.6 µM): 0.838
viability ([1]; 3 µM): 0.723
viability ([1]; 15 µM): 0.466
viability (Rigosertib; 0.008 µM): 1.07
viability (Rigosertib; 0.04 µM): 1.05
viability (Rigosertib; 0.2 µM): 1
viability (Rigosertib; 1 µM): 0.896
viability (Rigosertib; 5 µM): 0.851

primary MCL patient cells (S041)
viability (Imatinib; 0.016 µM): 1.07
viability (Imatinib; 0.4 µM): 1.05
viability (Imatinib; 2 µM): 1
viability (Imatinib; 10 µM): 0.834
viability (Vincristine; 0.016 µM): 0.667
viability (Vincristine; 0.08 µM): 0.59
viability (Vincristine; 0.4 µM): 0.519
viability (Vincristine; 2 µM): 0.475
viability (Vincristine; 10 µM): 0.355
viability (Carfilzomib; 0.00016 µM): 1.01
viability (Carfilzomib; 0.0008 µM): 0.345
viability (Carfilzomib; 0.004 µM): 0.0174
viability (Carfilzomib; 0.02 µM): 0.0136
viability (Carfilzomib; 0.1 µM): 0.0192
viability (Panobinostat; 0.00064 µM): 0.955
viability (Panobinostat; 0.0032 µM): 0.803
viability (Panobinostat; 0.016 µM): 0.218
viability (Panobinostat; 0.08 µM): 0.174
viability (Panobinostat; 0.4 µM): 0.171
viability (Bortezomib; 0.008 µM): 0.945
viability (Bortezomib; 0.04 µM): 1.04
viability (Bortezomib; 0.2 µM): 0.942
viability (Bortezomib; 1 µM): 1.06
viability (Bortezomib; 5 µM): 0.924
viability (Pentostatin; 0.03 µM): 0.958
viability (Pentostatin; 0.15 µM): 0.939
viability (Pentostatin; 0.75 µM): 0.905
viability (Pentostatin; 3.75 µM): 0.904
viability (Pentostatin; 18.76 µM): 0.816
viability (Idarubicin; 0.024 µM): 0.985
viability (Idarubicin; 0.12 µM): 0.462
viability (Idarubicin; 0.6 µM): 0.0191
viability (Idarubicin; 3 µM): 0.0267
viability (Idarubicin; 15 µM): 0.0135
viability (BI6727; 0.024 µM): 0.986
viability (BI6727; 0.12 µM): 0.967
viability (BI6727; 0.6 µM): 0.873
viability (BI6727; 3 µM): 0.76
viability (BI6727; 15 µM): 0.35
viability (Quizartinib; 0.016 µM): 1.07
viability (Quizartinib; 0.08 µM): 1.11
viability (Quizartinib; 0.4 µM): 1.09
viability (Quizartinib; 2 µM): 1.06
viability (Quizartinib; 10 µM): 0.964
viability (Vemurafenib; 0.024 µM): 0.961
viability (Vemurafenib; 0.12 µM): 1
viability (Vemurafenib; 0.6 µM): 0.944
viability (Vemurafenib; 3 µM): 0.979
viability (Vemurafenib; 15 µM): 1.04
viability (Nelarabine; 0.024 µM): 1.03
viability (Nelarabine; 0.12 µM): 1.02
viability (Nelarabine; 0.6 µM): 1
viability (Nelarabine; 3 µM): 1.01
viability (Nelarabine; 15 µM): 0.937
viability (TMP269; 0.024 µM): 1.02
viability (TMP269; 0.12 µM): 1.08
viability (TMP269; 0.6 µM): 1.06
viability (TMP269; 3 µM): 1.01
viability (TMP269; 15 µM): 0.942
viability ([1]; 0.024 µM): 1.02
viability ([1]; 0.12 µM): 0.884
viability ([1]; 0.6 µM): 0.65
viability ([1]; 3 µM): 0.221
viability ([1]; 15 µM): 0.0737
viability (Rigosertib; 0.008 µM): 0.999
viability (Rigosertib; 0.04 µM): 1.01
viability (Rigosertib; 0.2 µM): 0.993
viability (Rigosertib; 1 µM): 1
viability (Rigosertib; 5 µM): 0.668

primary MCL patient cells (S053)
viability (Imatinib; 0.016 µM): 1.1
viability (Imatinib; 2 µM): 1.07
viability (Vincristine; 0.016 µM): 0.401
viability (Vincristine; 0.08 µM): 0.335
viability (Vincristine; 0.4 µM): 0.299
viability (Vincristine; 2 µM): 0.304
viability (Vincristine; 10 µM): 0.287
viability (Carfilzomib; 0.00016 µM): 0.926
viability (Carfilzomib; 0.0008 µM): 0.227
viability (Carfilzomib; 0.004 µM): 0.0249
viability (Carfilzomib; 0.02 µM): 0.0235
viability (Carfilzomib; 0.1 µM): 0.0261
viability (Panobinostat; 0.00064 µM): 0.782
viability (Panobinostat; 0.0032 µM): 0.476
viability (Panobinostat; 0.016 µM): 0.117
viability (Panobinostat; 0.08 µM): 0.0942
viability (Panobinostat; 0.4 µM): 0.0907
viability (Bortezomib; 0.008 µM): 0.952
viability (Bortezomib; 0.04 µM): 1.06
viability (Bortezomib; 0.2 µM): 0.997
viability (Bortezomib; 1 µM): 1.01
viability (Bortezomib; 5 µM): 0.931
viability (Pentostatin; 0.03 µM): 0.873
viability (Pentostatin; 0.15 µM): 0.831
viability (Pentostatin; 0.75 µM): 0.81
viability (Pentostatin; 3.75 µM): 0.757
viability (Pentostatin; 18.76 µM): 0.675
viability (Idarubicin; 0.024 µM): 0.518
viability (Idarubicin; 0.12 µM): 0.298
viability (Idarubicin; 0.6 µM): 0.283
viability (Idarubicin; 3 µM): 0.529
viability (Idarubicin; 15 µM): 0.162
viability (BI6727; 0.024 µM): 0.894
viability (BI6727; 0.12 µM): 0.898
viability (BI6727; 0.6 µM): 0.726
viability (BI6727; 3 µM): 0.572
viability (BI6727; 15 µM): 0.481
viability (Quizartinib; 0.016 µM): 1.13
viability (Quizartinib; 0.08 µM): 1.13
viability (Quizartinib; 0.4 µM): 1.19
viability (Quizartinib; 2 µM): 1.32
viability (Quizartinib; 10 µM): 1.18
viability (Vemurafenib; 0.024 µM): 0.936
viability (Vemurafenib; 0.12 µM): 0.959
viability (Vemurafenib; 0.6 µM): 0.996
viability (Vemurafenib; 3 µM): 1.04
viability (Vemurafenib; 15 µM): 1.07
viability (Nelarabine; 0.024 µM): 1.02
viability (Nelarabine; 0.12 µM): 1.04
viability (Nelarabine; 0.6 µM): 0.954
viability (Nelarabine; 3 µM): 0.983
viability (Nelarabine; 15 µM): 0.767
viability (TMP269; 0.024 µM): 0.816
viability (TMP269; 0.12 µM): 0.82
viability (TMP269; 0.6 µM): 0.826
viability (TMP269; 3 µM): 0.831
viability (TMP269; 15 µM): 0.843
viability ([1]; 0.024 µM): 0.605
viability ([1]; 0.12 µM): 0.463
viability ([1]; 0.6 µM): 0.239
viability ([1]; 3 µM): 0.098
viability ([1]; 15 µM): 0.0587
viability (Rigosertib; 0.008 µM): 0.891
viability (Rigosertib; 0.04 µM): 0.922
viability (Rigosertib; 0.2 µM): 0.629
viability (Rigosertib; 1 µM): 0.518
viability (Rigosertib; 5 µM): 0.269
